Biological target: T1, HSP90α (Homo sapiens, UniProt P07900)
T1 construct: 6H is tagged HSP90α protein (amino acids 2-732) expressed in E. coli; 6His; made in house; host or cells: E. coli
Test: Test (a) In Vitro Binding Assay (fluorescence polarisation, binding to the ATP pocket of HSP90α)
Conditions: FP probe displacement, geometric mean where tested more than once
Experimental: Test (a) In Vitro Binding Assay
Test (a) measures the ability of a compound to bind to the ATP pocket of HSP90α. 6H is tagged HSP90α protein (amino acids 2-732) expressed in E. coli was purified and stored at −80° C. in aliquots. Assay measurements were performed in assay buffer comprising 20 mM HEPES pH 7.4, 50 mM KCl, 20 mM NaHMoO4, 0.01% Nonidet P40, 2 mM DTT and 0.1 mg/ml BSA. Following resuspension in DMSO, the FP probe 3-[[5-(5-ethyl-2,4-dihydroxy-phenyl)-4-(4-methoxyphenyl)2H-pyrazole-3-carbonyl]amino]propyl-Cy3B-amide; 14-(2-{[3-({[3-(5-ethyl-2,4-dihydroxyphenyl)-4-(4-methoxyphenyl)-1H-pyrazol-5-yl]carbonyl}amino)propyl]amino}-2-oxoethyl)-16,16,18,18-tetramethyl-2-sulfo-6,7,7a,8a,9,10,16,18-octahydrobenzo[2″,3″]indolizino [8″,7″:5′,6′]pyrano[3′,2′:3,4]pyrido[1,2-a]indol-5-ium) was diluted to a final concentration of 5 nM in assay buffer. Test compounds were prepared by dilution in 100% DMSO to give the appropriate dose range and dispensed into a 384 well assay plate as a 6X concentrate. Upon addition of recombinant HSP90α to a final assay concentration of 1 μg/ml, FP probe was added and plates incubated at room temperature for 1 to 4 hours. Final DMSO concentration was 1% in a total assay volume of 18 μl. Fluorescence Polarisation measurements were made using a Tecan Ultra plate reader using an excitation wavelength of 530 nm and an emission wavelength of 590 nm. Millipolarisation (mP) values were estimated using Xfluor software.
The data in the above table was generated in an assay substantially as described above in relation to in-vitro Binding Assay (a). Some of the compounds shown in the table were tested more than once in the assay. For those compounds the IC50 value shown is the geometric mean of the measured IC50 values. Therefore, as will be understood, the IC50 values quoted above are not absolute and further measurements of the IC50 values may result in a different mean IC50 value.

Row | SMILES | IC50
1 | CCC[C@@H]1C(=O)Nc2cnc(N)nc2N1Cc1ncc(C)c(OC)c1C [Example 7.4, (7R)-2-amino-8-[(4-methoxy-3,5-dimethyl-pyridin-2-yl)methyl]-7-propyl-7,8-dihydropteridin-6(5H)-one] | 1800 nM
2 | COc1c(C)cnc(CN2CC(=O)Nc3c(SC)nc(N)nc32)c1C [Example 9, 2-Amino-8-[(4-methoxy-3,5-dimethyl-pyridin-2-yl)methyl]-4-methylsulfanyl-5,7-dihydropteridin-6-one] | 1390 nM
3 | COCCCN1C(=O)CN(Cc2ncc(C)c(OC)c2C)c2nc(N)ncc21 [Example 11.1, 2-amino-8-[(4-methoxy-3,5-dimethylpyridin-2-yl)methyl]-5-(3-methoxypropyl)-7,8-dihydropteridin-6(5H)-one] | 1940 nM
4 | COc1c(C)cnc(CN2c3nc(N)ncc3N(CCN3CCNCC3)C(=O)[C@H]2C)c1C [Example 11.3, (7R)-2-amino-8-[(4-methoxy-3,5-dimethylpyridin-2-yl)methyl]-7-methyl-5-(2-piperazin-1-ylethyl)-7,8-dihydropteridin-6(5H)-one] | 7830 nM
5 | COc1c(C)cnc(CN2CC(=O)N(CCC(C)C)c3cnc(N)nc32)c1C [Example 11.5, 2-amino-8-[(4-methoxy-3,5-dimethylpyridin-2-yl)methyl]-5-(3-methylbutyl)-7,8-dihydropteridin-6(5H)-one] | 3780 nM
6 | COc1c(C)cnc(CN2c3nc(N)ncc3N(CCN3CCCC3)C(=O)[C@H]2C)c1C [Example 11.11, (7R)-2-amino-8-[(4-methoxy-3,5-dimethylpyridin-2-yl)methyl]-7-methyl-5-(2-pyrrolidin-1-ylethyl)-7,8-dihydropteridin-6(5H)-one] | 6090 nM
7 | COc1c(C)cnc(CN2c3nc(N)ncc3N(CC(C)(C)N(C)C)C(=O)[C@H]2C)c1C [Example 11.12, (7R)-2-amino-5-[2-(dimethylamino)-2-methylpropyl]-8-[(4-methoxy-3,5-dimethylpyridin-2-yl)methyl]-7-methyl-7,8-dihydropteridin-6(5H)-one] | 16000 nM
8 | COc1c(C)cnc(CN2c3nc(N)ncc3N(CCCN(C)C)C(=O)[C@H]2C)c1C [Example 11.13, (7R)-2-amino-5-[3-(dimethylamino)propyl]-8-[(4-methoxy-3,5-dimethylpyridin-2-yl)methyl]-7-methyl-7,8-dihydropteridin-6(5H)-one] | 4850 nM
9 | COc1c(C)cnc(CN2c3nc(N)ncc3N(CCN3CCOCC3)C(=O)[C@H]2C)c1C [Example 11.14, (7R)-2-amino-8-[(4-methoxy-3,5-dimethylpyridin-2-yl)methyl]-7-methyl-5-(2-morpholin-4-ylethyl)-7,8-dihydropteridin-6(5H)-one] | 2400 nM
10 | COc1c(C)cnc(CN2c3nc(N)ncc3N(CCCc3cccnc3)C(=O)[C@H]2C)c1C [Example 11.17, (7R)-2-amino-8-[(4-methoxy-3,5-dimethylpyridin-2-yl)methyl]-7-methyl-5-(3-pyridin-3-ylpropyl)-7,8-dihydropteridin-6(5H)-one] | 1480 nM
11 | COc1c(C)cnc(CN2c3nc(N)ncc3N(CCN3CCNC3=O)C(=O)[C@H]2C)c1C [Example 11.20, (7R)-2-amino-8-[(4-methoxy-3,5-dimethylpyridin-2-yl)methyl]-7-methyl-5-[2-(2-oxoimidazolidin-1-yl)ethyl]-7,8-dihydropteridin-6(5H)-one] | 2680 nM
12 | COc1c(C)cnc(CN2c3nc(N)ncc3N(CCN3CCCC3=O)C(=O)[C@H]2C)c1C [Example 11.21, (7R)-2-amino-8-[(4-methoxy-3,5-dimethylpyridin-2-yl)methyl]-7-methyl-5-[2-(2-oxopyrrolidin-1-yl)ethyl]-7,8-dihydropteridin-6(5H)-one] | 4610 nM

Stronger by IC50, values ahead:

Row | IC50 | SMILES
13 | 1220 nM | COCCCN1C(=O)[C@@H](C)N(Cc2ncc(C)c(OC)c2C)c2nc(N)ncc21 [Example 10, (7R)-2-Amino-8-[(4-methoxy-3,5-dimethylpyridin-2-yl)methyl]-5-(3-methoxypropyl)-7-methyl-7,8-dihydropteridin-6(5H)-one]
14 | 803 nM | COc1c(C)cnc(CN2c3nc(N)ncc3N(CC3CC3)C(=O)[C@H]2C)c1C [Example 11.10, (7R)-2-amino-5-(cyclopropylmethyl)-8-[(4-methoxy-3,5-dimethylpyridin-2-yl)methyl]-7-methyl-7,8-dihydropteridin-6(5H)-one]
15 | 619 nM | CCCN1C(=O)CN(Cc2ncc(C)c(OC)c2C)c2nc(N)ncc21 [Example 11.19, 2-amino-8-[(4-methoxy-3,5-dimethylpyridin-2-yl)methyl]-5-propyl-7,8-dihydropteridin-6(5H)-one]
16 | 563 nM | COc1c(C)cnc(CN2c3nc(N)ncc3N(CCc3ccncc3)C(=O)[C@H]2C)c1C [Example 11.15, (7R)-2-amino-8-[(4-methoxy-3,5-dimethylpyridin-2-yl)methyl]-7-methyl-5-(2-pyridin-4-ylethyl)-7,8-dihydropteridin-6(5H)-one]
17 | 552 nM | CCCN1C(=O)[C@@H](C)N(Cc2ncc(C)c(OC)c2C)c2nc(N)ncc21 [Example 11.8, (7R)-2-amino-8-[(4-methoxy-3,5-dimethylpyridin-2-yl)methyl]-7-methyl-5-propyl-7,8-dihydropteridin-6(5H)-one]
18 | 542 nM | COc1c(C)cnc(CN2c3nc(N)ncc3N(CCc3cccnc3)C(=O)[C@H]2C)c1C [Example 11.16, (7R)-2-amino-8-[(4-methoxy-3,5-dimethylpyridin-2-yl)methyl]-7-methyl-5-(2-pyridin-3-ylethyl)-7,8-dihydropteridin-6(5H)-one]
19 | 375 nM | COc1c(C)cnc(CN2c3nc(N)ncc3N(CCC(C)C)C(=O)[C@H]2C)c1C [Example 11.7, (7R)-2-amino-8-[(4-methoxy-3,5-dimethylpyridin-2-yl)methyl]-7-methyl-5-(3-methylbutyl)-7,8-dihydropteridin-6(5H)-one]
20 | 325 nM | COC(=O)C[C@@H]1C(=O)Nc2cnc(N)nc2N1Cc1ncc(C)c(OC)c1C [Example 7.3, Methyl {(7R)-2-amino-8-[(4-methoxy-3,5-dimethylpyridin-2-yl)methyl]-6-oxo-5,6,7,8-tetrahydropteridin-7-yl}acetate]
21 | 324 nM | COc1c(C)cnc(CN2c3nc(N)ncc3N(Cc3ccccc3)C(=O)[C@H]2C)c1C [Example 11.9, (7R)-2-amino-5-benzyl-8-[(4-methoxy-3,5-dimethylpyridin-2-yl)methyl]-7-methyl-7,8-dihydropteridin-6(5H)-one]
22 | 288 nM | COc1c(C)cnc(CN2CC(=O)N(Cc3ccccc3)c3c(Cl)nc(N)nc32)c1C [Example 11.22, 2-amino-5-benzyl-4-chloro-8-[(4-methoxy-3,5-dimethylpyridin-2-yl)methyl]-7,8-dihydropteridin-6(5H)-one]
23 | 191 nM | COc1c(C)cnc(CN2c3nc(N)ncc3N(CC(F)F)C(=O)[C@H]2C)c1C [Example 11.4, (7R)-2-amino-5-(2,2-difluoroethyl)-8-[(4-methoxy-3,5-dimethylpyridin-2-yl)methyl]-7-methyl-7,8-dihydropteridin-6(5H)-one]
24 | 166 nM | COc1c(C)cnc(CN2CC(=O)N(CCc3cccnc3)c3c(Cl)nc(N)nc32)c1C [Example 11.18, 2-amino-4-chloro-8-[(4-methoxy-3,5-dimethylpyridin-2-yl)methyl]-5-(2-pyridin-3-ylethyl)-7,8-dihydropteridin-6(5H)-one]
25 | 128 nM | COc1c(C)cnc(CN2c3nc(N)ncc3N(CCc3ccccc3)C(=O)[C@H]2C)c1C [Example 11.2, (7R)-2-amino-8-[(4-methoxy-3,5-dimethylpyridin-2-yl)methyl]-7-methyl-5-(2-phenylethyl)-7,8-dihydropteridin-6(5H)-one]
26 | 100 nM | COc1c(C)cnc(CN2CC(=O)Nc3c(Cl)nc(N)nc32)c1C [Example 8, 2-Amino-4-chloro-8-[(4-methoxy-3,5-dimethyl-pyridin-2-yl)methyl]-5,7-dihydropteridin-6-one]
27 | 96.8 nM | COc1c(C)cnc(CN2CC(=O)N(CCC(C)C)c3c(Cl)nc(N)nc32)c1C [Example 11.6, 2-amino-4-chloro-8-[(4-methoxy-3,5-dimethylpyridin-2-yl)methyl]-5-(3-methylbutyl)-7,8-dihydropteridin-6(5H)-one]
28 | 81.8 nM | COc1c(C)cnc(CN2CC(=O)N(CCc3ccccc3)c3c(Cl)nc(N)nc32)c1C [Example 11.24, 2-amino-4-chloro-8-[(4-methoxy-3,5-dimethylpyridin-2-yl)methyl]-5-(2-phenylethyl)-7,8-dihydropteridin-6(5H)-one]
29 | 49.6 nM | CCCN1C(=O)CN(Cc2ncc(C)c(OC)c2C)c2nc(N)nc(Cl)c21 [Example 11.23, 2-amino-4-chloro-8-[(4-methoxy-3,5-dimethylpyridin-2-yl)methyl]-5-propyl-7,8-dihydropteridin-6(5H)-one]

Source: US7799781B2, “5,6,7,8-tetrahydropteridine derivatives as HSP90 inhibitors” (AstraZeneca AB, priority 2007, dated 2010)
